Results on eight molecules are retold here after patent publication US5238926A, “Anti-fungal agents” (priority 1992, dated 1993).

Assay [1] deals with Resistant Strains (Candida albicans C79, C6, C8, C31, C54, C70, C104, C138, C140; Candida stellatoidea C45). Description: In vitro anti-fungal activity, microtiter minimum inhibitory concentration (MIC) test, resistant strains (MIC-R). In kind it is cell-based. The note with it: 48 h, pH 5.4, read-out: MIC-R. How it is done: (§1) The minimum inhibitory concentrations (MIC-R and MIC-S) were determined in accordance with the procedure set forth just below.
(§2) In vitro anti-fungal activity was determined in microtiter minimum inhibitory concentration (MIC) tests using Yeast Nitrogen […] (YNB without amino acids, Difco., Detroit, Mich.) at pH 5.4. Yeasts were grown overnight in Sabouraud Dextrose Broth. at 28° C. with shaking, and concentrations adjusted in sterile saline using a spectrophoptometer at 540 mμ. Compounds were dissolved in various vehicles and diluted in media to twice the final concentrations. The Cetus Pro/Pette system was used to serially dilute 50 μl in round bottom 96 well plates (Falcon, Lincoln Park, NJ.). The turbidometrically adjusted yeast suspensions were diluted 1:3,000 in YNB. These dilutions when added to the wells, produced a final inoculum of 3×10^3 /ml. Plates were incubated at 37° C. for 48 hours. MICs were defined as the lowest concentrations of compound that prevented visible growth. MICs were taken against the following organisms and expressed in the table above as the geometric mean. MIC-R and MIC-S mean respectively, MICs taken against resistant and sensitive strains.
Candida stellatoidea C45

A short description of assay [2]: In vitro anti-fungal activity, microtiter minimum inhibitory concentration (MIC) test, sensitive strains (MIC-S). In kind it is cell-based. The conditions noted are these: 48 h, pH 5.4, read-out: MIC-S. Here is the method: as §1, §2
Candida parapsilosis C67
Candida tropicalis C112
Torulopsis glabrata C95
Candida pseudotropicalis C967
Candida gullermondii C137
Sacchararomyces mutant C147

Converted amounts (≈) assume the structure as drawn.

For `CCCCCCCCCCC(N)C(=O)N[C@H](C(N)=O)[C@H]1O[C@@H](n2ccc(=O)[nH]c2=O)[C@H](O)[C@@H]1O` (stereo partly shown), the MIC in assay [1] and in assay [2] was > 256 µg/mL each time.

In the case of `CCCCCCCCCCCCNC(=O)[C@@H](NC(=O)[C@@H](N)CCCC)[C@H]1O[C@@H](n2ccc(=O)[nH]c2=O)[C@H](O)[C@@H]1O`, the MIC (as a rule, the smallest concentration in the dilution series that meets the test's criterion for growth inhibition) in assay [1] worked out at 13 µg/mL (≈ 22.9 µM); in assay [2] it was 19.7 µg/mL (≈ 34.7 µM).

In the case of `CCCCCCCCCCCCNC(=O)[C@@H](NC(=O)[C@@H](N)C(C)CSC)[C@H]1O[C@@H](n2ccc(=O)[nH]c2=O)[C@H](O)[C@@H]1O` (stereo partly shown), the MIC in assay [1] was determined as 23 µg/mL (≈ 38.3 µM); in assay [2], 34 µg/mL (≈ 56.7 µM).

Regarding `CCCCCCCCCCCCNC(=O)[C@@H](NC(=O)[C@@H](N)CSCc1ccccc1)[C@H]1O[C@@H](n2ccc(=O)[nH]c2=O)[C@H](O)[C@@H]1O`, the MIC in assay [1] is 111 µg/mL (≈ 171 µM); in assay [2], > 147 µg/mL.

Turning to `C=C[C@@H](C)[C@H](N)C(=O)N[C@H](C(=O)NCCCCCCCCCCCC)[C@H]1O[C@@H](n2ccc(=O)[nH]c2=O)[C@H](O)[C@@H]1O` [6'-dodecylamido-5-N-[2-S-amino-3-R-methyl-4-pentenoyl]-UPOC], the MIC in assay [1] is 18 µg/mL (≈ 31.8 µM); in assay [2], 26 µg/mL (≈ 46 µM).

Consider `CCCCCCCCCCCCNC(=O)[C@@H](NC(=O)C1(N)CC2CCC1C2)[C@H]1O[C@@H](n2ccc(=O)[nH]c2=O)[C@H](O)[C@@H]1O` (stereo partly shown), for which the MIC in assay [1] amounted to 104 µg/mL (≈ 176 µM); in assay [2], 315 µg/mL (≈ 532 µM).

Turning to `CCCCCCCCCCCCNC(=O)[C@@H](NC(=O)[C@@H](N)CCOC)[C@H]1O[C@@H](n2ccc(=O)[nH]c2=O)[C@H](O)[C@@H]1O`, the minimum inhibitory concentration (MIC) in assay [1] worked out at 52 µg/mL (≈ 91.3 µM); in assay [2], 111 µg/mL (≈ 195 µM).

As for `CCCCCCCCCCCCNC(=O)[C@@H](NC(=O)[C@@H](N)CC[S+](C)[O-])[C@H]1O[C@@H](n2ccc(=O)[nH]c2=O)[C@H](O)[C@@H]1O` (stereo partly shown), the minimum inhibitory concentration (MIC) in assay [1] and in assay [2] was 181 µg/mL (≈ 301 µM) throughout.
